# What was measured:
# Assay in all cases: Test D controlled growth environment herbicide test, pre- and postemergence
# Assay type in all cases: in vivo
# [1] = test system: barley, spring (spring barley, Hordeum vulgare)
# Outline: (§1)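 Rating is visual, 0–100 scale (100 = complete control), made against untreated plants 14–21 d after treatment in controlled growth conditions. Postemergence sprays went onto 1- to 4-leaf plants in peat medium; preemergence sprays onto silt loam after sowing; formulation included a surfactant.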
# [2] = test system: barley, winter (winter barley, Hordeum vulgare)
# Outline: as §1
# [3] = test system: bluegrass (annual bluegrass, Poa annua)
# Outline: as §1
# [4] = test system: buckwheat, wild (wild buckwheat, Polygonum convolvulus)
# Outline: as §1
# [5] = test system: chamomile (scentless chamomile, Matricaria inodora)
# Outline: as §1
# [6] = test system: field poppy (Papaver rhoeas)
# Outline: as §1
# [7] = test system: galium (catchweed bedstraw, Galium aparine)
# Outline: as §1
# [8] = test system: mustard, wild (wild mustard, Sinapis arvensis)
# Outline: as §1
# [9] = test system: oat, wild (wild oat, Avena fatua)
# Outline: as §1
# [10] = test system: oilseed rape (Brassica napus)
# Outline: as §1
# [11] = test system: pigweed (Amaranthus retroflexus)
# Outline: as §1
# [12] = test system: radish, wild (wild radish, Raphanus raphanistrum)
# Outline: as §1
# [13] = test system: speedwell (bird's-eye speedwell, Veronica persica)
# Outline: as §1
# [14] = Postemergence, 31 g ai/ha, scale 0 to 100 (0 no effect, 100 complete control)
# [15] = Postemergence, 125 g ai/ha, visual rating on scale 0 (no effect) to 100 (complete control), 14 to 21 d
# [16] = Postemergence, 250 g ai/ha, scale 0 to 100 (0 no effect, 100 complete control)
# [17] = Preemergence, 62 g ai/ha, scale 0 to 100 (0 no effect, 100 complete control)
# [18] = Preemergence, 125 g ai/ha, scale 0 to 100 (0 no effect, 100 complete control)
# [19] = Preemergence, 250 g ai/ha, scale 0 to 100 (0 no effect, 100 complete control)
# [20] = postemergence, 62 g ai/ha, scale 0 to 100, 0 no effect, 100 complete control
compound,measurement,setting,value
COc1nn(C)c(=O)c(-c2c(C)ccc3ccccc23)c1OC(=O)OC(C)C [Compound 36],"Plant response rating, Barley, Spring",[1]; [14],0
same,"Plant response rating, Barley, Spring",[1]; [15],0
same,"Plant response rating, Barley, Spring",[1]; [16],10
same,"Plant response rating (scale of 0 to 100), Barley, Spring","[1]; Preemergence, 31 g ai/ha",0
same,"Plant response rating, Barley, Spring",[1]; [17],0
same,"Plant response rating, Barley, Spring",[1]; [18],0
same,"Barley, Spring plant response rating",[1]; [19],0
same,"Plant response rating, Barley, Spring",[1]; [20],0
same,"Plant response rating, Barley, Winter",[2]; [14],0
same,"Plant response rating, Barley, Winter",[2]; [15],5
same,"Plant response rating, Barley, Winter",[2]; [16],10
same,"Plant response rating (scale of 0 to 100), Barley, Winter","[2]; Preemergence, 31 g ai/ha",0
same,"Plant response rating, Barley, Winter",[2]; [17],0
same,"Plant response rating, Barley, Winter",[2]; [18],0
same,"Barley, Winter plant response rating",[2]; [19],0
same,"Plant response rating, Barley, Winter",[2]; [20],0
same,Bluegrass plant response rating,[3]; [14],10
same,"Plant response rating, Bluegrass",[3]; [15],40
same,"Plant response rating, Bluegrass",[3]; [16],35
same,"Plant response rating (scale of 0 to 100), Bluegrass","[3]; Preemergence, 31 g ai/ha",0
same,"Plant response rating, Bluegrass",[3]; [17],15
same,"Plant response rating, Bluegrass",[3]; [18],10
same,Bluegrass plant response rating,[3]; [19],15
same,"Plant response rating, Bluegrass",[3]; [20],15
same,"Buckwheat, Wild plant response rating",[4]; [14],100
same,"Plant response rating, Buckwheat, Wild",[4]; [15],100
same,"Plant response rating, Buckwheat, Wild",[4]; [16],100
same,"Plant response rating (scale of 0 to 100), Buckwheat, Wild","[4]; Preemergence, 31 g ai/ha",0
same,"Plant response rating, Buckwheat, Wild",[4]; [17],0
same,"Plant response rating, Buckwheat, Wild",[4]; [18],10
same,"Plant response rating, Buckwheat, Wild",[4]; [19],10
same,"Plant response rating, Buckwheat, Wild",[4]; [20],100
same,Chamomile plant response rating,[5]; [14],95
same,"Plant response rating, Chamomile",[5]; [15],100
same,"Plant response rating, Chamomile",[5]; [16],100
same,"Plant response rating, Chamomile",[5]; [20],95
same,Field Poppy plant response rating,[6]; [14],60
same,"Plant response rating, Field Poppy",[6]; [15],90
same,"Plant response rating, Field Poppy",[6]; [16],100
same,"Plant response rating, Field Poppy",[6]; [17],50
same,"Plant response rating, Field Poppy",[6]; [18],70
same,"Plant response rating, Field Poppy",[6]; [19],100
same,"Plant response rating, Field Poppy",[6]; [20],70
same,Galium plant response rating,[7]; [14],100
same,"Plant response rating, Galium",[7]; [15],100
same,"Plant response rating, Galium",[7]; [16],100
same,"Plant response rating (scale of 0 to 100), Galium","[7]; Preemergence, 31 g ai/ha",0
same,"Plant response rating, Galium",[7]; [17],20
same,"Plant response rating, Galium",[7]; [18],75
same,"Plant response rating, Galium",[7]; [19],85
same,"Plant response rating, Galium",[7]; [20],100
same,"Mustard, Wild plant response rating",[8]; [14],100
same,"Plant response rating, Mustard, Wild",[8]; [15],100
same,"Plant response rating, Mustard, Wild",[8]; [16],100
same,"Plant response rating (scale of 0 to 100), Mustard, Wild","[8]; Preemergence, 31 g ai/ha",45
same,"Plant response rating, Mustard, Wild",[8]; [17],85
same,"Plant response rating, Mustard, Wild",[8]; [18],85
same,"Plant response rating, Mustard, Wild",[8]; [19],90
same,"Plant response rating, Mustard, Wild",[8]; [20],100
same,"Oat, Wild plant response rating",[9]; [14],35
same,"Plant response rating, Oat, Wild",[9]; [15],85
same,"Plant response rating, Oat, Wild",[9]; [16],95
same,"Plant response rating (scale of 0 to 100), Oat, Wild","[9]; Preemergence, 31 g ai/ha",35
same,"Plant response rating, Oat, Wild",[9]; [17],45
same,"Plant response rating, Oat, Wild",[9]; [18],75
same,"Plant response rating, Oat, Wild",[9]; [19],85
same,"Plant response rating, Oat, Wild",[9]; [20],80
same,Oilseed Rape plant response rating,[10]; [14],75
same,"Plant response rating, Oilseed Rape",[10]; [15],95
same,"Plant response rating, Oilseed Rape",[10]; [16],100
same,"Plant response rating (scale of 0 to 100), Oilseed Rape","[10]; Preemergence, 31 g ai/ha",0
same,"Plant response rating, Oilseed Rape",[10]; [17],0
same,"Plant response rating, Oilseed Rape",[10]; [18],55
same,"Plant response rating, Oilseed Rape",[10]; [19],65
same,"Plant response rating, Oilseed Rape",[10]; [20],85
same,Pigweed plant response rating,[11]; [14],100
same,"Plant response rating, Pigweed",[11]; [15],100
same,"Plant response rating, Pigweed",[11]; [16],100
same,"Plant response rating (scale of 0 to 100), Pigweed","[11]; Preemergence, 31 g ai/ha",55
same,"Plant response rating, Pigweed",[11]; [17],75
same,"Plant response rating, Pigweed",[11]; [18],100
same,"Plant response rating, Pigweed",[11]; [19],100
same,"Plant response rating, Pigweed",[11]; [20],100
same,"Radish, Wild plant response rating",[12]; [14],80
same,"Plant response rating, Radish, Wild",[12]; [15],100
same,"Plant response rating, Radish, Wild",[12]; [16],100
same,"Plant response rating (scale of 0 to 100), Radish, Wild","[12]; Preemergence, 31 g ai/ha",0
same,"Plant response rating, Radish, Wild",[12]; [17],0
same,"Plant response rating, Radish, Wild",[12]; [18],50
same,"Plant response rating, Radish, Wild",[12]; [19],70
same,"Plant response rating, Radish, Wild",[12]; [20],90
same,Speedwell plant response rating,[13]; [14],60
same,"Plant response rating, Speedwell",[13]; [15],100
same,"Plant response rating, Speedwell",[13]; [16],100
same,"Plant response rating (scale of 0 to 100), Speedwell","[13]; Preemergence, 31 g ai/ha",95
same,"Plant response rating, Speedwell",[13]; [17],100
same,"Plant response rating, Speedwell",[13]; [18],100
same,"Plant response rating, Speedwell",[13]; [19],100
same,"Plant response rating, Speedwell",[13]; [20],90

# — patent US10597388B2, “Pyridazinone herbicides” (FMC CORPORATION, priority 2014, dated 2020)
